Laboratory results as given in patent US20110275798A1, “Method for Determination of Sirolimus Stability and Process for Preparing Its Stable Form” (priority 2009, published 2011).

Assay: Stability (degradation) of sirolimus solid forms
Type: physicochemical

CO[C@H]1C[C@@H]2CC[C@@H](C)[C@@](O)(O2)C(=O)C(=O)N2CCCC[C@H]2C(=O)O[C@H]([C@H](C)C[C@@H]2CC[C@@H](O)[C@H](OC)C2)CC(=O)[C@H](C)/C=C(\C)[C@@H](O)[C@@H](OC)C(=O)[C@H](C)C[C@H](C)/C=C/C=C/C=C/1C [sirolimus]
stability (degradation) (amorphous form): degrades at a fast rate | stability (degradation) (crystalline form): substantially stable
